Results on seven substances are retold here after patent US4656250A, “[Nle^8, Nle^18, Tyr^34 or Phe^34 ]-h-PTH peptide derivatives” (Toyo Jozo Kabushiki Kaisha, priority 1983, dated 1987).

The target of one series is T1, PTH receptor (Rattus norvegicus, UniProt P25961).
T1 construct: A surface membrane was removed, and the renal cortex carved out and ice-cooled; from tissue; host or cells: rat (SD, male) renal cortex, crude membrane fraction (2200 x g precipitate)
T1 sequence (P25961 27-591): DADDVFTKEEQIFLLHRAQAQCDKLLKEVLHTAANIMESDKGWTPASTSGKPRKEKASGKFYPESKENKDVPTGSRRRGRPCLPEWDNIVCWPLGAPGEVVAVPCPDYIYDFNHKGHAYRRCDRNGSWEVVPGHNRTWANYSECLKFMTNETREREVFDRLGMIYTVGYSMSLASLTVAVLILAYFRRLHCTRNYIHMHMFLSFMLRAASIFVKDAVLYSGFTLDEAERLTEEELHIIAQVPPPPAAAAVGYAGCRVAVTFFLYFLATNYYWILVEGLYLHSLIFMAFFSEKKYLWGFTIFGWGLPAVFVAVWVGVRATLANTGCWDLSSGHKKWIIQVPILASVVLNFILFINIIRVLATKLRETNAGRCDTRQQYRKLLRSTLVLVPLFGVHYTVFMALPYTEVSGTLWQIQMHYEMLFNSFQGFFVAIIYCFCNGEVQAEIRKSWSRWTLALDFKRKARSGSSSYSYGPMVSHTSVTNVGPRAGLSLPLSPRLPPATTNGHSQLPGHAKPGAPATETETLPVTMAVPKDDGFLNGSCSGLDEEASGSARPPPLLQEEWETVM
In words: Assay of PTH activity: c-AMP generated on reaction with rat renal cortex PTH receptor preparation, parallel line assay against standard bovine PTH(1-34). The format is biochemical. As to conditions: for PTH Activity After Labelling with 125I: after labelling with iodine-125 (chloramine T); for PTH Activity After Labelling with 125I / PTH Activity: rat renal cortex PTH receptor, c-AMP generation; for PTH Activity: unlabelled sample, vs standard bovine PTH(1-34); for h-PTH activity, times stronger than known h-PTH(1-34) and [Nle8, Nle18]-h-PTH(1-34): compared with h-PTH(1-34) and [Nle8, Nle18]-h-PTH(1-34). On the procedure:
(1) Preparation of PTH receptor:
Rats, strain SD, male, weight 200-250 g, were decollated to bleed, laparotomized and excised of kidneys. A surface membrane was removed, and the renal cortex carved out and ice-cooled. The following operations should be carried out at a temperature as low as possible (0°-4° C.).
The renal cortex was immersed in a solution (hereinafter designated as solution A) of 10 mM Tris-HCl buffer (pH 7.5) containing 0.25 M sucrose and lmM EDTA. Three times the volume of solution A (ml) suspending the renal cortex (wet weight) was added to a renal cortex in a glass tube with Tefron (trade name) pestle and homogenized.
A homogenate was centrifuged for 10 minutes at 150×g, and the supernatant solution was further centrifuged for 15 mins. at 2200×g. The supernatant solution was discarded and the upper emulsion part of precipitate was suspended in a solution A. The said emulsion was centrifuged for 15 mins. at 2200×g. The precipitate was again suspended and frozen at -70° C. in a bottle stored at -20° C.
(2) Reaction with PTH and PTH-receptor:
Specimen was dissolved in 100 mM Tris-HCl buffer (ph 7.5) containing ATP-Mg 2 mM, MgCl2 10 mM, KCl 60 mM, GTP 20 μM, isobutyl methyl xanthine 1 mM, creatine phosphate 8 mM and bovine serum albumin (BSA) 0.2% to prepare 2 μg/ml and 10 μg/ml solutions. Standard bovine PTH(1-34) solution was also prepared in the same manner.
The above solutions [2 μg/ml and 10 μg/ml specimen] and bovine PTH(1-34) (50 μl) were each divided among eight glass test tubes, and kept in ice water in order to prevent ATP […] and to prepare test solutions. A stock solution of PTH receptor stored at -20° C. was thawed to room temperature. Creatine kinase, previously dissolved in solution A, was added thereto to prepare creatine kinase at 0.1 mg/ml and PTH receptor at 1.4 mg/ml as protein by adding solution A while keeping the solution in ice cooling. After the above test solutions were preincubated at 37° C. for several minutes, the PTH receptor-creatine kinase solution (each 50 μl) was added therein and incubated at 37° C. for 10 mins. 0.1 M acetate buffer (pH 4.0, 100 μl) was added, the mixture immediately placed in ice-water, and the tube heated in boiling water for one minute to stop the reaction.
(3) Assay of generated c-AMP:
Distilled water was added to the above reaction-stopped solution to 10-30 times dilution, and deproteinized by centrifugation for 15 mins. at 2000×g. An amount of c-AMP in a supernatant solution was assayed by RIA-kit (YASAMA SHOYU CO.)
(4) Determination of PTH activity:
The measured values of c-AMP hereinabove were converted to a unit of pM (pico mole)/mg PTH receptor-protein/minute as a designation of measured value. The measured value of the specimen was compared to the standard substance according to a parallel assay line two by two.

The conditions of series [1]: cited from earlier work; for PTH / hormonal activity compared with natural h-PTH: prior art, Jap. Pat. Unexam. Publ. No. 55-113753.
The next series deals with PTH receptors. Put plainly: Affinity for PTH receptors (statement, no method given). The format is binding. As to conditions: in words.

Take h-PTH(1-34)NH2: in the series with PTH receptor, the “PTH Activity After Labelling with 125I” value is given as above 150 U/mg and the “PTH Activity” value stood at 5100 U/mg.
Take “h-PTH(1-34) (SVSEIQLMHNLGKHLNSMERVEWLRKKLQDVHNF; Parathyroid hormone; UniProt P01270 32-65, looked up, fragment) [34-amino acid N-terminal fragment of human parathyroid hormone]”: the “hormonal activity when labelled with iodine-125” value in series [1] (methionine at position-8 and -18 is oxidized) is reported as “loses hormonal activity”.
Take [Nle^8, Nle^18 ]-h-PTH(1-34): the “PTH / hormonal activity compared with natural h-PTH” value in series [1] was “approximately equal to but no more than that of natural h-PTH”.
As for “h-PTH: sample of the activity table; human parathyroid hormone, probably the h-PTH(1-34) fragment labelled in b29”, in the series with PTH receptor, the “PTH Activity After Labelling with 125I” value is recorded as above 100 U/mg and the “PTH Activity” value is listed as 3000 U/mg.
As to [Nle^8, Nle^18, Tyr^34 ]-h-PTH(1-34), on PTH receptor, the “PTH Activity After Labelling with 125I” value worked out at 2480 U/mg and the “PTH Activity” value is reported as 2930 U/mg. Further, the “PTH / hormonal activity compared with natural h-PTH” value in series [1] is “only approximately equal to that of natural h-PTH(1-34)”.
In the case of [Nle^8, Nle^18, Tyr^34 ]-h-PTH(1-34)NH2, at PTH receptor (after labelling with iodine-125), the “PTH activity after labelling (in words)” value was “retains its PTH activity after labelling”. On PTH receptor, the “PTH Activity After Labelling with 125I” value was 5000 U/mg; the “h-PTH activity, times stronger than known h-PTH(1-34) and [Nle8, Nle18]-h-PTH(1-34)” value was 1.5-2 times; the “PTH Activity” value is listed as 5030 U/mg. Also, the “biological activity in long term storage” value at PTH receptor (labelled peptide, long term storage) is “retains its biological activity in long term storage”. Further, in the series on PTH receptors, the “affinity for PTH receptors compared with known h-PTH(1-34) and [Nle8, Nle18]-h-PTH(1-34)” value is given as “stronger affinity”.
Take [Nle^8, Nle^18, Phe^34 ]-h-PTH(1-34)NH2: on PTH receptor, the “h-PTH activity, times stronger than known h-PTH(1-34) and [Nle8, Nle18]-h-PTH(1-34)” value is 1.5-2 times; the “PTH Activity” value came to 5000 U/mg. Moreover, the “affinity for PTH receptors compared with known h-PTH(1-34) and [Nle8, Nle18]-h-PTH(1-34)” value in the series on PTH receptors is recorded as “stronger affinity”.
